Experiment [1] addresses T1, EphB6 (Homo sapiens, UniProt O15197).
T1 construct: Histidine-tagged EphB ectodomain Fc fusion proteins were incubated overnight
T1 sequence (O15197 32-594 limits assumed): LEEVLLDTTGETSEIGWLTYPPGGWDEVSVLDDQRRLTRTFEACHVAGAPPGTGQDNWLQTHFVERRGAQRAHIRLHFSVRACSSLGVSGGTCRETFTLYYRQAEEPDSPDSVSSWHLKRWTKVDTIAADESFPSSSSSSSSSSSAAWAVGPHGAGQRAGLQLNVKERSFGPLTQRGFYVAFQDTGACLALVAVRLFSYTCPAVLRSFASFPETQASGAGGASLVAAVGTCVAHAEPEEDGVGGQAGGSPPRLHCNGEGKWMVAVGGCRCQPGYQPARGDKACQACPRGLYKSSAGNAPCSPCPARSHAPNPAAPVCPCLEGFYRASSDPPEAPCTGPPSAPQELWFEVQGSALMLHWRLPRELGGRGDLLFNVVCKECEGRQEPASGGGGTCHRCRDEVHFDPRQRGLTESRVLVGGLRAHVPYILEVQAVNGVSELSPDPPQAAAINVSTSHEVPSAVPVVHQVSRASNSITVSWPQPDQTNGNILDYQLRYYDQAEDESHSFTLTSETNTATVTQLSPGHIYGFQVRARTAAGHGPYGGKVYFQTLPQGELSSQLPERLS
The experiment can be described thus: Phage clone binding to immobilized EphB6 ectodomain Fc (phage ELISA). Conditions: phage clone displaying the peptide. Background: In an ELISA, binding on a coated surface is turned into a signal by an enzyme label.
Procedure: Phage binding to Ni-NTA wells coated with 1 μg/ml Eph receptor Fe fusion proteins was quantified using an anti-phage antibody conjugated to horseradish peroxidase (M13 phage detection kit, Amersham Biosciences) with 2,2-azino-bis(3-ethylbenzothiazoline-6-sulfonic acid) as a substrate. The background that was subtracted from the measurements was determined without EphB4 Fc. […] In round 1 of panning, 2×10^11 plaque forming units (PFUs) of the phage library in 100 μl binding buffer were incubated for 1 hour at room temperature in the EphB receptor-coated wells.

Experiment [2] concerns the target T2, EphB3 (Homo sapiens, UniProt P54753).
T2 construct: Histidine-tagged EphB ectodomain Fc fusion proteins were incubated overnight
T2 sequence (P54753 34-559 limits assumed): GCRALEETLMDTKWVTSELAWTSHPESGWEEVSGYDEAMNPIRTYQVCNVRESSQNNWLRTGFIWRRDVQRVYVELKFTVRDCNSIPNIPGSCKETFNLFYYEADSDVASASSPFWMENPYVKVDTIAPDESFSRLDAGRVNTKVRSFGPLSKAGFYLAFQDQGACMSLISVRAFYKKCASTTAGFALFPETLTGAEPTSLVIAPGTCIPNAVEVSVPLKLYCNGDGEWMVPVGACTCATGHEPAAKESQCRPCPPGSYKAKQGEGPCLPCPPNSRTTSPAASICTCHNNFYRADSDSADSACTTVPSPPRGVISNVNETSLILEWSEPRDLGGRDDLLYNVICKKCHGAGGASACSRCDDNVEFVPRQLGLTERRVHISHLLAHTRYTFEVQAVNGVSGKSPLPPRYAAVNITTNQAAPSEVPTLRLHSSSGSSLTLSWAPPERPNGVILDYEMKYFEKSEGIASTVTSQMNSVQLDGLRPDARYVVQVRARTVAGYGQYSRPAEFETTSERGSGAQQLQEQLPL
Nature of the experiment: Phage clone binding to immobilized EphB3 ectodomain Fc (phage ELISA). Conditions: phage clone displaying the peptide. As for the experimental part: To identify EphB receptor-binding peptides, an M13 phage library (R&D Systems, Minneapolis, Minn.) displaying random 12 amino acid-long peptides was panned on the ectodomains of EphB1, EphB2, or EphB4 fused to human Fc and immobilized on nickel-coated wells through a carboxy-terminal hexahistidine tag (FIG. 1). Phage binding to Ni-NTA wells coated with 1 μg/ml Eph receptor Fe fusion proteins was quantified using an anti-phage antibody conjugated to horseradish peroxidase (M13 phage detection kit, Amersham Biosciences) with 2,2-azino-bis(3-ethylbenzothiazoline-6-sulfonic acid) as a substrate. The background that was subtracted from the measurements was determined without EphB4 Fc. Histidine-tagged EphB ectodomain Fc fusion proteins were incubated overnight at 4° C. in nickel-nitrilotriacetic acid (Ni-NTA)-coated ELISA wells at concentrations of 10 μg/ml in Tris-buffered saline (TBS) (150 mM NaCl, 50 mM Tris-HCl, pH 7.5), except for EphB2 and EphB4 rounds 3.2 and 4, which were with 1 μg/ml. […] Phage recovered after the first round of panning (1*) were not quantified to ensure that rare clones would be recovered.
The binding selectivity of the phage clones for the different mammalian EphB receptors was also determined (Table 1). […]

The target in experiment [3] is T3, EphA3 (Homo sapiens, UniProt P29320).
T3 sequence (P29320 21-983): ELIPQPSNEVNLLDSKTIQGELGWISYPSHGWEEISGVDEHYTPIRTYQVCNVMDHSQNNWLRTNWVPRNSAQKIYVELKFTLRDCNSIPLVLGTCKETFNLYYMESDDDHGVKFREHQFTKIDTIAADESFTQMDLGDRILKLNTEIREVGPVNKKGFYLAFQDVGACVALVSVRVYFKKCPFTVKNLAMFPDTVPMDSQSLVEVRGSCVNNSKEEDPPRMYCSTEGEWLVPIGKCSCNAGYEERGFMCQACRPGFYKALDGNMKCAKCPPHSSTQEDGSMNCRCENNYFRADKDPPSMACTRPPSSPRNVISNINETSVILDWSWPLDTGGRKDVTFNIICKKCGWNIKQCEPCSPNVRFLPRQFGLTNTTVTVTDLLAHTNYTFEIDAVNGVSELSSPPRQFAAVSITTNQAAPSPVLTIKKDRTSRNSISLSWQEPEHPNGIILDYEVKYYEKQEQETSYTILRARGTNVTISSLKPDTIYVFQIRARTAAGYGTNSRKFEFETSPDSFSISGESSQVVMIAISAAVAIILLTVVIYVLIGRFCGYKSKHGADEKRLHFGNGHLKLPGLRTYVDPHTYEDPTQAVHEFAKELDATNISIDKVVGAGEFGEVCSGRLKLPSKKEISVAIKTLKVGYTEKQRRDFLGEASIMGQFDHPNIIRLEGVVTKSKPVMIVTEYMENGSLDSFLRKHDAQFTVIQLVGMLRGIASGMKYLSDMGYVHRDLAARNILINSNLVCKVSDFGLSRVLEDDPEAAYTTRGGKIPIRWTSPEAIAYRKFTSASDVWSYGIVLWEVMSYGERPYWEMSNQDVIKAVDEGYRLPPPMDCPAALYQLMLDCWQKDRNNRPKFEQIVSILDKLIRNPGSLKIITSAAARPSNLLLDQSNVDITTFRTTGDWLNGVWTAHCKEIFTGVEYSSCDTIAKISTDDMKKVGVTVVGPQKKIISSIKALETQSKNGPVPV
The following applies: read-out: KD for monovalent EphA3-ephrin-A5 interaction; cited from earlier work.

No end group written: not given here.

For the molecule EWLSPNLAPSVR [compound 1], in experiment [1], the “EphB Receptor Specificity (% Binding) B6” value was 0%. The “EphB Receptor Specificity (% Binding) B3” value in experiment [2] amounted to 1%.

B1: ephrin-A5: ephrin ligand; monovalent interaction with EphA3, literature KD (protein, UniProt P52803 21-203, looked up)
Ephrin-A5: QDPGSKAVADRYAVYWNSSNPRFQRGDYHIDVCINDYLDVFCPHYEDSVPEDKTERYVLYMVNFDGYSACDHTSKGFKRWECNRPHSPNGPLKFSEKFQLFTPFSLGFEFRPGREYFYISSAIPDNGRRSCLKLKVFVRPTNSCMKTIGVHDRVFDVNDKVENSLEPADDTVHESAEPSRGEN
Turning to B1, the Kd (in general, the equilibrium constant for the complex coming apart) in experiment [3] is 0.01 to 0.012 µM.

(Values after US7999069B2, “EphB receptor-binding peptides” (Sanford-Burnham Medical Research Institute, priority 2005, dated 2011).)
